Results reported in patent publication US6417178B1, “Amyloid binding nitrogen-linked compounds for the antemortem diagnosis of alzheimer's disease, in vivo imaging and prevention of amyloid deposits” (University of Pittsburgh, priority 1994, dated 2002).
“And” between values parts separate entries of the source, which are not always exact repeats. Identical values can stand only once. Like-named read-outs stand apart in the source and are kept apart here. Blank lines part the entries; values can stand above or below the molecule they belong to.

Assays:
[1] = target: T1, synthetic peptide, Aβ (10-43) (Homo sapiens, UniProt P05067); assay: Inhibition of [14C]Chrysamine G binding to Aβ (10-43); settings: for binding affinity in words: inhibition of [14C]Chrysamine G binding to Aβ (10-43), compared with Chrysamine G
T1 construct: The 10-43 amino acid fragment of Aβ was synthesized; made in house; host or cells: chemical (FMOC) peptide synthesis, no expression host
Experimental: (§1) Binding assays were performed in 12×75 mm borosilicate glass tubes. […] To the above solution, 25 μl of a 0.36 mg/ml suspension of Aβ (10-43) in H2O was added and 10% ethanol was added to bring the volume to 950 μl. […] The binding mixture was incubated for 30 min at room temperature.
Ki is defined as IC50/(1+[L]/KD ), where [L] is the concentration of [^14C]

[2] = Octanol/water partitioning; assay type: physicochemical; settings: for octanol/water partition coefficient: 1-octanol / phosphate buffered saline pH 7.4
Experimental: The mixture was then centrifuged at 1,000 g to facilitate the formation of two clear phases. […] Concentrations were determined after correction for the molar absorptivity differences in the two solvents and the partition coefficient expressed as the concentration in the octanol layer divided by the concentration in the aqueous layer. Experiments were done in triplicate.

[3] = target: synthetic Aβ (10-43) peptide (Homo sapiens, UniProt P05067); assay: Scatchard analysis of Chrysamine G binding to synthetic Aβ (10-43)
Source text: Hilbich et al., J. Mol. Biol. 218: 149 (1991). The 10-43 amino acid fragment of Aβ was synthesized with 9-fluorenylmethyl chloroformate (FMOC) chemistry by the Peptide Synthesis Facility of the University of Pittsburgh. […] The peptide was further purified by the method of Hilbich et al. which, in brief, consisted of sequential size-exclusion chromatography on a Biogel P10 column (2×180 cm, 200-400 mesh, Biorad, Richmond, Calif.) in 70% formic acid followed by a second elution through a Biogel P4 column (2×180 cm, 200-400 mesh) in 1M acetic acid. Hilbich et al., J. Mol. Biol. 218: 149 (1991). The peptide was lyophilized and stored at −80° C. until used in the binding assays.
as §1

Aβ (10-43) = Aβ (10-43) (Homo sapiens, UniProt P05067); assay: Kinetics of [14C]Chrysamine G binding to Aβ (10-43)
Experimental: This mixture was vortexed and incubated for 30 min at room temperature.
Bennett, J. P. and Yamamura, H. I. in NEUROTRANSMITTER RECEPTOR BINDING (N.Y.: Raven Press 1985) pp. 61-89. […] The curve in FIG. 6C follows the equation: […]

[4] = system: control brain homogenates; assay: [14C]CG binding to control brain homogenates; set-up: species or system human
[5] = system: Down's syndrome brain samples; assay: [14C]Chrysamine G binding to Down's syndrome brain samples; set-up: species or system human; settings: two patients; ratio to cerebellum (FIG. 9C)
Source text: Down's syndrome patients all develop deposits of Aβ by their fourth decade and many develop AD. Wisniewski et al., Neurology 35: 957 (1985); Schapiro et al., Neurobiol. Aging 13, 723 (1992).

[6] = Tissue levels after i.v. injection of [14C]Chrysamine G in mice (blood-brain barrier, metabolism); assay type: in vivo, Swiss-Webster mice; settings: brain and liver extracted 60 min after i.v. injection
Experimental: Mice were sacrificed by cervical dislocation at intervals of 15 min, 35 min, 1 hr, 4 hr, and 24 hr after injection. The carotid blood, brain, liver, and kidneys were rapidly obtained, weighed, and homogenized in distilled/deionized H2O using a ground glass homogenizer. An aliquot was weighed into an 18.0 ml plastic scintillation vial (Beckman Poly-Q-Vial) and counted after addition of 10.0 ml of scintillation cocktail (Cytoscint®-ES (ICN)) and overnight equilibration.
Brain and liver were then removed and extracted with a Folch procedure. Folch et al., J. Biol. Chem. 226: 447 (1957). In both tissues, over 95% of the extracted radioactivity was contained in the organic layer. The organic layer was evaporated to dryness, resuspended in a minimal amount of 10% methanol/90% ACN, and injected onto a silica column (Prep Nova Pak HR Silica, 7.8×300 mm, Waters, Milford, Mass.) and eluted isocratically with the same solvent. Under these conditions, 99% of the radioactivity is eluted in the solvent front, but most lipids are retained longer, making the fraction eluting in the solvent front suitable for injection onto the reverse-phase C4 column system described above. […] One minute fractions were collected and counted after addition of 10 ml of Cytoscint®-ES.

[7] = system: rat pheochromocytoma (PC-12) cells; settings: for effect on toxicity induced by 1 μM Aβ (25-35): MTT reduction (FIG. 14)
Experimental: Rat pheochromocytoma cells (PC-12) were grown in RPMI 1640 media with 10% fetal bovine serum. Approximately 5,000 exponentially growing cells were plated in 96-well plates in a volume of 100 μl of media and allowed to incubate at 37° C. overnight. […] The cells were incubated for 24 hrs prior to the addition of 13.3 μl of 5 mg/ml MTT (3,(4,5-dimethylthiazol-2-yl)2,5-diphenyltetrazolium bromide) in sterile phosphate buffered saline. After 4.5 hrs at 37° C., 100 μl of extraction buffer (20% w/v SDS in 50% DMF/water; pH adjusted to 4.7 with 2.5% of 80% acetic acid and 2.5% 1N HCl) was added and the plates were incubated overnight. Hansen et al., J. Immunol. Methods 119: 203 (1989). Color development was then measured at 560 nm. Maximum viability was defined as the absorbance of control wells to which only the 20 μl of distilled, deionized H2O was added. Maximum toxicity was defined by wells in which the cells were lysed by addition of 0.1% (final concentration) of Triton X-100.

in vivo = settings: mouse
AD brain homogenates [8] = target: AD brain homogenates (Homo sapiens, UniProt P05067); assay: [14C]CG binding to AD brain homogenates
Experimental: (§2) Autopsy brain samples were obtained from the Neuropathology Core of the Alzheimer's Disease Research Center of the University of Pittsburgh. […] Brain samples from eight control (ages 58-75), eleven AD (ages 61-84), and two Down syndrome brains were studied. There were six high-plaque (>20 NPs/×200 magnification) and five low-plaque (<20 NPs/×200 magnification) AD brains. […] Autopsy samples were immediately frozen at −70° C. and stored at that temperature until homogenized. […] The Bielschowsky silver impregnation method was used to identify NPs and NFTs and Congo red staining was used to identify cerebral amyloid angiopathy.
(§3) Aliquots of 25-150 μl tissue (about 25-300 μg of protein by the method of Lowry et al., J. Biol, Chem. 193: 265 (1951)) were incubated in 12×75 mm borosilicate glass tubes at room temperature with 10-750 nM [^14C]CG (26.8 Ci/mole) in a final volume of 1.0 ml of 10% ethanol for 30 min at room temperature. The standard conditions employed about 150 μg of protein and 75 nM [^14C]CG for the cerebellar ratio studies and about 75 μg of protein and 150 nM [^14C]CG for the correlative studies with NPs, NFTS, and amyloid angiopathy. Ethanol was necessary to prevent the micelle formation which occurs with diazo dye derivatives, since the micelles are trapped by the filter even in the absence of tissue. Bound and free radioactivity were separated by vacuum filtration through Whatman GF/B filters using a Brandel M-24R Cell Harvester (Gaithersburg, Md.) followed by two 3-ml washes with 10% ethanol at room temperature. Filters were equilibrated overnight in 4 ml Cytoscint®-ES scintillant (ICN Biomedicals, Inc., Irvine, Calif.) in 7.0 ml plastic scintillation vials before counting. Saturable (specific) binding was defined as total binding minus residual (non-saturable) binding in the presence of 20 μM unlabelled CG. In all binding assays, incubations were done at least in triplicate and the results expressed as mean±standard error unless otherwise specified. Results were expressed either in absolute terms of fmol [^14C]CG bound/μg protein in a given brain area, or as a ratio of the fmol/μg protein in that brain area to the fmol/μg protein in the cerebellum of the same brain.

AD brain homogenates [9] = assay: [14C]CG binding to AD brain homogenates; settings: for total binding, AD: high and low-plaque AD brains combined
Experimental: as §2, §3

[10] = guinea pigs; cited from earlier work
[11] = system: rat pheochromocytoma (PC-12) cells; settings: previously reported; cited from earlier work
[12] = Ki for inhibition of [14C]Chrysamine G binding to Aβ (10-43), Ki=IC50/(1+[L]/KD), KD 0.26 μM
[13] = PC-12 cells, Aβ (25-35), MTT reduction

Sequence of synthetic Aβ (10-43) peptide (P05067 681-714): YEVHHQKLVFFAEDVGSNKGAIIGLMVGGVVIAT
T1 sequence (P05067 681-714): as above
Sequence of AD brain homogenates (Homo sapiens, UniProt P05067) (P05067 18-770): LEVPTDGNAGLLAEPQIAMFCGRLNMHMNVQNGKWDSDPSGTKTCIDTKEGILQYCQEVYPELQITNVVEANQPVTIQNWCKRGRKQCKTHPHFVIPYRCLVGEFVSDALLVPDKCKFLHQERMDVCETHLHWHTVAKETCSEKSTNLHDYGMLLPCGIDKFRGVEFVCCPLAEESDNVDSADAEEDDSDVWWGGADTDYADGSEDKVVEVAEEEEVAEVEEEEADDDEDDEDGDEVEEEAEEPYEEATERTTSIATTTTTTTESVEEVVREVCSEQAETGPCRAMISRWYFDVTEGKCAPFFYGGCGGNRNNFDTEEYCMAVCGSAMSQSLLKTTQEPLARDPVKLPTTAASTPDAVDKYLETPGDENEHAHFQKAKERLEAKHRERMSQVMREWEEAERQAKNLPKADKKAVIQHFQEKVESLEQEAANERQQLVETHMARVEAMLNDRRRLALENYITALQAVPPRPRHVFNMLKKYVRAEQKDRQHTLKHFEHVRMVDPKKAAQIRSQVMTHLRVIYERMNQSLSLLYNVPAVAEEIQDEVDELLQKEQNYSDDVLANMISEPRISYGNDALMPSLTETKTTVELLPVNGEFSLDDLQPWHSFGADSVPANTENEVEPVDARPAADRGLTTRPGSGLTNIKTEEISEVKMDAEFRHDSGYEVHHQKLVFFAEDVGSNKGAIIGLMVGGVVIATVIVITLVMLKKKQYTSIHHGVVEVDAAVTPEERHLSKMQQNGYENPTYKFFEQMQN
Sequence of Aβ (10-43) (P05067 681-714): as the sequence (P05067 681-714) above

SMILES: O=C(O)c1cc(N=Nc2ccc(-c3ccc(N=Nc4ccc(O)c(C(=O)O)c4)cc3S(=O)(=O)O)c(S(=O)(=O)O)c2)ccc1O [2,2′-(SO3)2CG]
binding affinity in words [1]: inactivity

decrease in affinity / loss of activity relative to Chrysamine G [1]: 7 fold
SMILES: O=C(O)c1cc(N=Nc2ccc(-c3ccc(N=Nc4ccc(O)c(C(=O)O)c4)c(C(=O)O)c3)cc2C(=O)O)ccc1O [3,3′-(COOH)2CG]

binding affinity in words [1]: about half that of Chrysamine G
SMILES: O=C(O)c1cc(N=Nc2ccc(-c3ccc(N=Nc4ccc(O)c(C(=O)O)c4)c(Br)c3)cc2Br)ccc1O [3,3′-Br2CG]

binding affinity in words [1]: about half that of Chrysamine G
SMILES: O=C(O)c1cc(N=Nc2ccc(-c3ccc(N=Nc4ccc(O)c(C(=O)O)c4)c(Cl)c3)cc2Cl)ccc1O [3,3′-Cl2CG]

binding affinity in words [1]: about half that of Chrysamine G
octanol/water partition coefficient [2]: 112.9±7.3
SMILES: O=C(O)c1cc(N=Nc2ccc(-c3ccc(N=Nc4ccc(O)c(C(=O)O)c4)c(I)c3)cc2I)ccc1O [3,3′-I2CG]

Ki [1, 12]: 1160 ± 190 nM
binding affinity in words [1]: one-third as potent as Chrysamine G
SMILES: O=C(O)c1cc(F)cc(N=Nc2ccc(-c3ccc(N=Nc4cc(F)cc(C(=O)O)c4O)cc3)cc2)c1O [(5-FSA)CG, 4,4′-bis(2-hydroxy-3-carboxy-5-fluorophenylazo)-biphenyl]

decrease in affinity / loss of activity relative to Chrysamine G [1]: about 200 fold
SMILES: COC(=O)c1cc(N=Nc2ccc(-c3ccc(N=Nc4ccc(O)c(C(=O)OC)c4)cc3)cc2)ccc1O [CG(COOMe)2, 4,4′-bis(3-methoxycarbonyl-4-hydroxyphenylazo)-biphenyl]

SMILES: O=C(O)c1cc(N=Nc2ccc(-c3ccc(N=Nc4ccc(O)c(C(=O)O)c4)cc3)cc2)ccc1O [Chrysamine G, 4,4′-bis(3-carboxy-4-hydroxyphenylazo)-biphenyl]
Kd ([3]; Scatchard, two independent binding site model, read-out: KD, higher affinity component): 257 nM and 260 nM
Bmax, higher affinity component ([3]; Scatchard, two-site model): 3.18 nmoles Chrysamine G/mg Aβ (10-43)
Bmax, lower affinity component ([3]; Scatchard, two-site model, less well defined): 18.7 nmoles Chrysamine G/mg Aβ (10-43)
Kd ([3]; whether measured by Scatchard analysis, kinetic methods, or inhibition of binding, read-out: dissociation constant): 250 to 400 nM
time by which association is essentially complete (Aβ (10-43); [Chrysamine G]=112 μM): ≤ 1 min
Kd (Aβ (10-43); from kinetic constants, read-out: KD=k−1/k1): 340 nM
Ki [1, 12]: 370 ± 40 nM
energy of binding ([1]; ΔG=−RT ln Keq, Keq=1/KD≈1/Ki): roughly 38 KJ/mole
Bmax, typical control brain sample (FIG. 4B) [4]: 614 fmol/μg protein
total binding, Control ([4]; Cerebellum): 75 ± 13 (n = 8) fmol/μg protein
Bmax (pmol/μg prot) ([4]; Control (n = 6)): 0.576 ± .092 pmol/μg prot
Kd ([4]; Control (n = 6), read-out: KD): 470 ± 49 nM
total binding, Control ([4]; Frontal Pole): 58 ± 8 (n = 6) fmol/μg protein
total binding, Control ([4]; Head of Caudate): 73 ± 11 (n = 4) fmol/μg protein
total binding, Control ([4]; Inferior Parietal): 76 ± 13 (n = 8) fmol/μg protein
total binding, Control ([4]; Occipital): 64 ± 16 (n = 8) fmol/μg protein
total binding, Control ([4]; Superior Temporal): 66 ± 17 (n = 8) fmol/μg protein
total binding, Control ([4]; Superior/Middle Frontal): 54 ± 10 (n = 8) fmol/μg protein
Kd ([4]; read-out: KD, typical control brain sample (FIG. 4B)): 480 nM
binding in Down's syndrome brain compared with control [5]: above the control range
times more lipophilic than Congo red ([2]; from partition coefficients): approximately 90
recovered radioactivity co-eluting with authentic Chrysamine G on reverse phase HPLC [6]: > 95%
MTT reduction with compound alone versus control [7]: no significant difference
concentration at which the protective effect is evident [7, 13]: 0.2 µM
concentration range showing effects [7, 13]: 0.1 to 1.0 µM
effect on toxicity induced by 1 μM Aβ (25-35) ([7]; PC-12 cells): protective effects at 0.1 and 1 μM
LD50 at 72 h (in vivo): > 100 mg/kg
Bmax (pmol/μg prot) (AD brain homogenates [8]; AD (n = 5)): 0.784 ± .061 pmol/μg prot
Bmax, typical AD brain sample (FIG. 4B) (AD brain homogenates [8]; AD brain sample with 48 NP/×200 magnification): 790 fmol/μg protein
saturable (specific) binding as share of total binding (AD brain homogenates [9]; AD brain homogenates): 60-80%
total binding, AD (AD brain homogenates [9]; Cerebellum): 73 ± 9 (n = 11) fmol/μg protein
total binding, AD (AD brain homogenates [9]; Frontal Pole): 124 ± 16 (n = 10) fmol/μg protein
total binding, AD (AD brain homogenates [9]; Head of Caudate): 123 ± 22 (n = 7) fmol/μg protein
total binding, AD (AD brain homogenates [9]; Inferior Parietal): 137 ± 19 (n = 11) fmol/μg protein
total binding, AD (AD brain homogenates [9]; Occipital): 95 ± 12 (n = 11) fmol/μg protein
total binding, AD (AD brain homogenates [9]; Superior Temporal): 121 ± 14 (n = 11) fmol/μg protein
total binding, AD (AD brain homogenates [9]; Superior/Middle Frontal): 130 ± 21 (n = 11) fmol/μg protein
Bmax in AD brain higher than control (AD brain homogenates [9]; not significant (p=0.09)): 36%
KD in AD brain lower than control (AD brain homogenates [9]; not significant (p=0.29)): 16%

Ki [1, 12]: 2820 nM and 2800 nM
octanol/water partition coefficient [2]: 0.665±0.037
SMILES: Nc1c(/N=N/c2ccc(-c3ccc(/N=N/c4cc(S(=O)(=O)O)c5ccccc5c4N)cc3)cc2)cc(S(=O)(=O)O)c2ccccc12 [Congo red, reference compound]
brain/kidney ratio [10]: approximately 0.07
concentration achieving complete protection [11]: 20 µM
concentrations protecting against Aβ-induced toxicity [11]: over 2 μM

SMILES: O=C(O)c1cc(N=Nc2ccccc2)ccc1O [aniline derivative]
energy of binding [1]: 5.5 kcal/mol
Ki ([1]; read-out: Ki for inhibition of [14C]Chrysamine G binding to Aβ (10-43)): 73000 nM

SMILES: Oc1ccc(N=Nc2ccc(-c3ccc(N=Nc4ccc(O)cc4)cc3)cc2)cc1 [phenol derivative]
binding affinity in words [1]: completely destroyed binding affinity
effect on toxicity induced by 1 μM Aβ (25-35) ([7]; PC-12 cells): no protective effects

binding affinity in words [1]: total lack of binding activity
SMILES: O=C(O)c1ccccc1O [salicylic acid, reference compound]

Ki [1, 12]: 750 ± 90 nM
binding affinity in words [1]: about twice that of Chrysamine G
SMILES: Cc1cc(-c2cc(C)c(N=Nc3ccc(O)c(C(=O)O)c3)c(C)c2)cc(C)c1N=Nc1ccc(O)c(C(=O)O)c1 [tetramethyl analog of Chrysamine G, 4,4′-bis(3-carboxy-4-hydroxyphenylazo)-3,3′,5,5′-tetramethylbiphenyl]
